Where a SMILES comes first, the peptide text is derived from it. Bridges are numbered along the chain shown (N, C = ends). [ ]: non-standard residue; d: D form. The star is where a group is joined. ξ: configuration not given here. Bip = N[C@@H](Cc1ccc(-c2ccccc2)cc1)C(=O)O; Phe(3-Me) = Cc1cccc(C[C@H](N)C(=O)O)c1; Cyclopropanecarbonyl = O=C(C1CC1)*; hArg = N=C(N)NCCCC[C@H](N)C(=O)O; 4Pal = N[C@@H](Cc1ccncc1)C(=O)O; Cha = N[C@@H](CC1CCCCC1)C(=O)O; Cit = NC(=O)NCCC[C@H](N)C(=O)O; Ile(3ξ) = CCC(C)[C@H](N)C(=O)O; Thr(3ξ) = CC(O)[C@H](N)C(=O)O; 12Ado = NCCCCCCCCCCCC(=O)O; Carboxymethyl = O=C(O)C*; NMeA = CN[C@@H](C)C(=O)O; Orn = NCCC[C@H](N)C(=O)O; Aun = NCCCCCCCCCCC(=O)O; Dab = NCC[C@H](N)C(=O)O; Dap = NC[C@H](N)C(=O)O; X12 = CC(C)(F)C(=O)*

T1 sequence (Q15116 25-288): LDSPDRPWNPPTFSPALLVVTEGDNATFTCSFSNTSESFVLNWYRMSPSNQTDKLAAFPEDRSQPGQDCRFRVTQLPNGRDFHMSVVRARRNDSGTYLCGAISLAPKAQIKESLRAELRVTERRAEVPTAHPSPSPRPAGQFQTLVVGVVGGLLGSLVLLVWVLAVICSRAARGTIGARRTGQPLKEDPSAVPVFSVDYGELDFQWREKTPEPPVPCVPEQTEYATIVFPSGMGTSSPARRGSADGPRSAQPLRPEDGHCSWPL

This test addresses T1, PD-1/PD-L1 interaction (PE-labeled human PD-L1-Ig binding to Jurkat cell line over-expressing human PD-1) (Homo sapiens, UniProt Q15116).
T1 construct: expressed in transfected cells; host or cells: Jurkat
Nature of the test: Jurkat-PD-1 Cell Binding High-Content Screening Assay (CBA). As to conditions: Jurkat-hPD-1 cells, PE-labeled PD-L1-Ig 20 nM final; read-out: Jurkat HPD1 PDL1 IC50. An outline of the steps:
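Read-out: high-content imaging of cell-bound PE fluorescence, with Hoechst 33342 nuclear counterstain after paraformaldehyde fixation. Before labeled ligand (20 nM final, 1 h) was added, compound sat on the cells for 2 h at 37 °C in DMEM/10% FCS.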
As a reminder, the IC50 is the concentration that inhibits the measured activity by half. Turning to `Cc1cccc(C[C@@H]2NC(=O)[C@H](CC(=O)O)NC(=O)[C@H](Cc3ccc(OCC(=O)O)cc3)NC(=O)[C@H](CCCCNC(=N)N)NC(=O)CSC[C@@H](C(=O)N[C@@H](CCN)C(=O)NCCCCCCCCCCC(=O)O)NC(=O)[C@H](C(C)O)NC(=O)[C@H](C(C)C)NC(=O)[C@H](CC3CCCCC3)NC(=O)[C@H](CCN)NC(=O)[C@@H](CC(C)C)NC(=O)[C@H](C)N(C)C(=O)[C@H](CCCCNC(=O)C3CC3)NC(=O)[C@H](Cc3ccc(-c4ccccc4)cc3)NC(=O)[C@H](Cc3ccc(O)cc3)NC2=O)c1` (stereo partly drawn) [Example 2399] ({CH2CO}-[hArg]Y(Carboxymethyl)D[Phe(3-Me)]Y[Bip]K(Cyclopropanecarbonyl)[NMeA][dL][Dab][Cha]V[Thr(3ξ)]C[Dab][Aun]-OH; thioether N-14), the IC50 is 14.1 nM.
With `Cc1cccc(C[C@@H]2NC(=O)[C@H](CC(=O)O)NC(=O)[C@H](Cc3ccc(OCC(=O)O)cc3)NC(=O)[C@H](CCCNC(=O)C3CC3)NC(=O)CSC[C@@H](C(=O)N[C@@H](CCN)C(=O)NCCCCCCCCCCC(=O)O)NC(=O)[C@H](C(C)O)NC(=O)[C@H](C(C)C)NC(=O)[C@H](CC3CCCCC3)NC(=O)[C@H](CCN)NC(=O)[C@@H](CC(C)C)NC(=O)[C@H](C)N(C)C(=O)[C@H](CCCNC(N)=O)NC(=O)[C@H](Cc3ccc(-c4ccccc4)cc3)NC(=O)[C@H](Cc3ccc(O)cc3)NC2=O)c1` (stereo partly drawn) [Example 2400] ({CH2CO}-[Orn](Cyclopropanecarbonyl)Y(Carboxymethyl)D[Phe(3-Me)]Y[Bip][Cit][NMeA][dL][Dab][Cha]V[Thr(3ξ)]C[Dab][Aun]-OH; thioether N-14), the IC50 worked out at 11 nM.
Under `Cc1cccc(C[C@@H]2NC(=O)[C@H](CC(=O)O)NC(=O)[C@H](Cc3ccc(OCC(=O)O)cc3)NC(=O)[C@H](CCCNC(=O)C(C)(C)F)NC(=O)CSC[C@@H](C(=O)N[C@@H](CCCN)C(=O)N[C@@H](CO)C(=O)NCCCCCCCCCCCC(=O)O)NC(=O)[C@H](C(C)O)NC(=O)[C@H](C(C)C)NC(=O)[C@H](CC3CCCCC3)NC(=O)[C@H](CCN)NC(=O)[C@@H](CC(C)C)NC(=O)[C@H](C)N(C)C(=O)[C@H](CCCNC(N)=O)NC(=O)[C@H](Cc3ccc(-c4ccccc4)cc3)NC(=O)[C@H](Cc3ccc(O)cc3)NC2=O)c1` (stereo partly drawn) [Example 2401] ({CH2CO}-[Orn](X12)Y(Carboxymethyl)D[Phe(3-Me)]Y[Bip][Cit][NMeA][dL][Dab][Cha]V[Thr(3ξ)]C[Orn]S[12Ado]-OH; thioether N-14) stands 94.4 nM; under `Cc1cccc(C[C@@H]2NC(=O)[C@H](CC(=O)O)NC(=O)[C@H](Cc3ccc(OCC(=O)O)cc3)NC(=O)[C@H](CN)NC(=O)CSC[C@@H](C(=O)N[C@@H](CCCN)C(=O)N[C@@H](CO)C(=O)NCCCCCCCCCCCC(=O)O)NC(=O)[C@H](C(C)O)NC(=O)[C@H](C(C)C)NC(=O)[C@H](CC3CCCCC3)NC(=O)[C@H](CCN)NC(=O)[C@@H](CC(C)C)NC(=O)[C@H](C)N(C)C(=O)[C@H](CCCNC(N)=O)NC(=O)[C@H](Cc3ccc(-c4ccccc4)cc3)NC(=O)[C@H](Cc3ccc(O)cc3)NC2=O)c1` (stereo partly drawn) [Example 2402] ({CH2CO}-[Dap]Y(Carboxymethyl)D[Phe(3-Me)]Y[Bip][Cit][NMeA][dL][Dab][Cha]V[Thr(3ξ)]C[Orn]S[12Ado]-OH; thioether N-14), 51.7 nM.
With `Cc1cccc(C[C@@H]2NC(=O)[C@H](CC(=O)O)NC(=O)[C@H](Cc3ccc(OCC(=O)O)cc3)NC(=O)[C@H](Cc3ccncc3)NC(=O)CSC[C@@H](C(=O)N[C@@H](CCCN)C(=O)N[C@@H](CO)C(=O)NCCCCCCCCCCCC(=O)O)NC(=O)[C@H](C(C)O)NC(=O)[C@H](C(C)C)NC(=O)[C@H](CC3CCCCC3)NC(=O)[C@H](CCN)NC(=O)[C@@H](CC(C)C)NC(=O)[C@H](C)N(C)C(=O)[C@H](CCCNC(=O)C3CC3)NC(=O)[C@H](Cc3ccc(-c4ccccc4)cc3)NC(=O)[C@H](Cc3ccc(O)cc3)NC2=O)c1` (stereo partly drawn) [Example 2403] ({CH2CO}-[4Pal]Y(Carboxymethyl)D[Phe(3-Me)]Y[Bip][Orn](Cyclopropanecarbonyl)[NMeA][dL][Dab][Cha]V[Thr(3ξ)]C[Orn]S[12Ado]-OH; thioether N-14), the IC50 amounted to 47.9 nM.
In the case of `Cc1cccc(C[C@@H]2NC(=O)[C@H](CC(=O)O)NC(=O)[C@H](Cc3ccc(OCC(=O)O)cc3)NC(=O)[C@H](Cc3ccncc3)NC(=O)CSC[C@@H](C(=O)N[C@@H](CCCN)C(=O)N[C@@H](CO)C(=O)NCCCCCCCCCCCC(=O)O)NC(=O)[C@H](C(C)O)NC(=O)[C@H](C(C)C)NC(=O)[C@H](CC3CCCCC3)NC(=O)[C@H](CCN)NC(=O)[C@@H](CC(C)C)NC(=O)[C@H](C)N(C)C(=O)[C@H](CCCCNC(=O)C3CC3)NC(=O)[C@H](Cc3ccc(-c4ccccc4)cc3)NC(=O)[C@H](Cc3ccc(O)cc3)NC2=O)c1` (stereo partly drawn) [Example 2404] ({CH2CO}-[4Pal]Y(Carboxymethyl)D[Phe(3-Me)]Y[Bip]K(Cyclopropanecarbonyl)[NMeA][dL][Dab][Cha]V[Thr(3ξ)]C[Orn]S[12Ado]-OH; thioether N-14), the IC50 was 40.9 nM.
In the case of `CC(=O)NCCCC[C@@H]1NC(=O)[C@H](Cc2ccc(-c3ccccc3)cc2)NC(=O)[C@H](C(C)C)NC(=O)[C@H](Cc2c[nH]c3ccccc23)NC(=O)[C@H](CC(=O)O)NC(=O)[C@H](Cc2ccc(OCC(=O)O)cc2)NC(=O)[C@H](C(C)O)NC(=O)CSC[C@@H](C(=O)N[C@@H](CCCN)C(=O)N[C@@H](CO)C(=O)NCCCCCCCCCCCC(=O)O)NC(=O)[C@H](C(C)O)NC(=O)[C@H](C(C)C)NC(=O)[C@H](CC2CCCCC2)NC(=O)[C@H](CCN)NC(=O)[C@@H](CC(C)C)NC(=O)[C@H](C)N(C)C1=O` (stereo partly drawn) [Example 2405] ({CH2CO}-[Thr(3ξ)]Y(Carboxymethyl)DWV[Bip]K(Ac)[NMeA][dL][Dab][Cha]V[Thr(3ξ)]C[Orn]S[12Ado]-OH; thioether N-14), the IC50 stood at 75.3 nM.
As to `CC(=O)NCCCC[C@@H]1NC(=O)[C@H](Cc2ccc(-c3ccccc3)cc2)NC(=O)[C@H](C(C)C)NC(=O)[C@H](Cc2c[nH]c3ccccc23)NC(=O)[C@H](CC(=O)O)NC(=O)[C@H](Cc2ccc(OCC(=O)O)cc2)NC(=O)[C@H](C(C)O)NC(=O)CSC[C@@H](C(=O)N[C@@H](CCCN)C(=O)N[C@@H](CO)C(=O)NCCCCCCCCCCCC(=O)O)NC(=O)[C@H](CCCN)NC(=O)[C@H](C(C)C)NC(=O)[C@H](CC2CCCCC2)NC(=O)[C@H](CCN)NC(=O)[C@@H](CC(C)C)NC(=O)[C@H](C)N(C)C1=O` (stereo partly drawn) [Example 2406] ({CH2CO}-[Thr(3ξ)]Y(Carboxymethyl)DWV[Bip]K(Ac)[NMeA][dL][Dab][Cha]V[Orn]C[Orn]S[12Ado]-OH; thioether N-14), the IC50 was determined as 159 nM.
On to `CC(=O)NCCCC[C@@H]1NC(=O)[C@H](Cc2ccc(-c3ccccc3)cc2)NC(=O)[C@H](C(C)C)NC(=O)[C@H](Cc2c[nH]c3ccccc23)NC(=O)[C@H](CC(=O)O)NC(=O)[C@H](Cc2ccc(OCC(=O)O)cc2)NC(=O)[C@H](CN)NC(=O)CSC[C@@H](C(=O)N[C@@H](CCCN)C(=O)N[C@@H](CO)C(=O)NCCCCCCCCCCCC(=O)O)NC(=O)[C@H](C(C)O)NC(=O)[C@H](C(C)C)NC(=O)[C@H](CC2CCCCC2)NC(=O)[C@H](CCN)NC(=O)[C@@H](CC(C)C)NC(=O)[C@H](C)N(C)C1=O` (stereo partly drawn) [Example 2407] ({CH2CO}-[Dap]Y(Carboxymethyl)DWV[Bip]K(Ac)[NMeA][dL][Dab][Cha]V[Thr(3ξ)]C[Orn]S[12Ado]-OH; thioether N-14), for which the IC50 worked out at 66.1 nM.
Turning to `CCC(C)[C@@H]1NC(=O)[C@H](Cc2ccc(-c3ccccc3)cc2)NC(=O)[C@H](C(C)C)NC(=O)[C@H](Cc2c[nH]c3ccccc23)NC(=O)[C@H](CC(=O)O)NC(=O)[C@H](Cc2ccc(OCC(=O)O)cc2)NC(=O)[C@H](C(C)O)NC(=O)CSC[C@@H](C(=O)N[C@@H](CCCN)C(=O)N[C@@H](CO)C(=O)NCCCCCCCCCCCC(=O)O)NC(=O)[C@H](CCCN)NC(=O)[C@H](C(C)C)NC(=O)[C@H](CC2CCCCC2)NC(=O)[C@H](CCN)NC(=O)[C@@H](CC(C)C)NC(=O)[C@H](C)N(C)C1=O` (stereo partly drawn) [Example 2408] ({CH2CO}-[Thr(3ξ)]Y(Carboxymethyl)DWV[Bip][Ile(3ξ)][NMeA][dL][Dab][Cha]V[Orn]C[Orn]S[12Ado]-OH; thioether N-14), the IC50 was found to be 228 nM.
As to `CCC(C)[C@@H]1NC(=O)[C@H](Cc2ccc(-c3ccccc3)cc2)NC(=O)[C@H](C(C)C)NC(=O)[C@H](Cc2c[nH]c3ccccc23)NC(=O)[C@H](CC(=O)O)NC(=O)[C@H](Cc2ccc(OCC(=O)O)cc2)NC(=O)[C@H](CN)NC(=O)CSC[C@@H](C(=O)N[C@@H](CCCN)C(=O)N[C@@H](CO)C(=O)NCCCCCCCCCCCC(=O)O)NC(=O)[C@H](C(C)O)NC(=O)[C@H](C(C)C)NC(=O)[C@H](CC2CCCCC2)NC(=O)[C@H](CCN)NC(=O)[C@@H](CC(C)C)NC(=O)[C@H](C)N(C)C1=O` (stereo partly drawn) [Example 2409] ({CH2CO}-[Dap]Y(Carboxymethyl)DWV[Bip][Ile(3ξ)][NMeA][dL][Dab][Cha]V[Thr(3ξ)]C[Orn]S[12Ado]-OH; thioether N-14), the IC50 was 109 nM.
As to `CCC(C)[C@@H]1NC(=O)[C@H](Cc2ccc(-c3ccccc3)cc2)NC(=O)[C@H](C(C)C)NC(=O)[C@H](Cc2c[nH]c3ccccc23)NC(=O)[C@H](CC(=O)O)NC(=O)[C@H](Cc2ccc(OCC(=O)O)cc2)NC(=O)[C@H](C(C)O)NC(=O)CSC[C@@H](C(=O)N[C@@H](CCCN)C(=O)N[C@@H](CO)C(=O)NCCCCCCCCCCCC(=O)O)NC(=O)[C@H](C(C)O)NC(=O)[C@H](C(C)C)NC(=O)[C@H](CC2CCCCC2)NC(=O)[C@H](CCN)NC(=O)[C@@H](CC(C)C)NC(=O)[C@H](C)N(C)C1=O` (stereo partly drawn) [Example 2410] ({CH2CO}-[Thr(3ξ)]Y(Carboxymethyl)DWV[Bip][Ile(3ξ)][NMeA][dL][Dab][Cha]V[Thr(3ξ)]C[Orn]S[12Ado]-OH; thioether N-14), the IC50 was found to be 108 nM.

The values above are taken from patent US20260070945A1, “MACROCYCLIC IMMUNOMODULATORS” (Bristol-Myers Squibb Company, priority 2022, published 2026).
